In PubChem BioAssay (NCI):
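At the GI50, growth is halved. At the TGI there is no net growth.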

Experiments:
Assay in all cases: inhibition of tumour cell growth, NCI panel, 384-well format
[1] = tested on: HCT-116 colon
[2] = tested on: SR leukemia
[3] = tested on: HL-60(TB) leukemia
[4] = tested on: ACHN renal
[5] = tested on: BT-549 breast
[6] = tested on: A498 renal
[7] = tested on: MDA-MB-468 breast
[8] = tested on: RXF 393 renal
[9] = tested on: HS 578T breast
[10] = tested on: T-47D breast
[11] = tested on: DU-145 prostate
[12] = tested on: HOP-92 NSCLC
[13] = tested on: MALME-3M melanoma
[14] = tested on: IGROV1 ovarian
[15] = tested on: CAKI-1 renal
[16] = tested on: U251 glioblastoma
[17] = tested on: TK-10 renal
[18] = tested on: OVCAR-3 ovarian
[19] = tested on: EKVX NSCLC
[20] = tested on: COLO 205 colon
[21] = tested on: UACC-257 melanoma
[22] = tested on: LOX IMVI melanoma
[23] = tested on: NCI-H522 lung
[24] = tested on: SK-OV-3 ovarian
[25] = tested on: UACC-62 melanoma
[26] = tested on: HT29 colon
[27] = tested on: NCI/ADR-RES ovarian
[28] = tested on: NCI-H460 NSCLC
[29] = tested on: MDA-MB-435 melanoma
[30] = tested on: SF-295 CNS
[31] = tested on: HOP-62 NSCLC
[32] = tested on: MCF7 breast
[33] = tested on: A549 NSCLC
[34] = tested on: SNB-19 CNS
[35] = tested on: CCRF-CEM leukemia
[36] = tested on: NCI-H23 lung
[37] = tested on: SN12C renal
[38] = tested on: KM12 colon
[39] = tested on: SW-620 colon
[40] = tested on: MDA-MB-231 breast
[41] = tested on: PC-3 prostate
[42] = tested on: SK-MEL-2 melanoma
[43] = tested on: SF-268 CNS
[44] = tested on: NCI-H322M lung
[45] = tested on: HCC-2998 colon
[46] = tested on: OVCAR-4 ovarian
[47] = tested on: UO-31 renal
[48] = tested on: M14 melanoma
[49] = tested on: OVCAR-8 ovarian
[50] = tested on: HCT-15 colon
[51] = tested on: OVCAR-5 ovarian
[52] = tested on: SK-MEL-5 melanoma
[53] = tested on: RPMI-8226 leukemia
[54] = tested on: SF-539 CNS
[55] = tested on: SK-MEL-28 melanoma
[56] = tested on: MOLT-4 leukemia
[57] = tested on: SNB-75 CNS
[58] = tested on: NCI-H226 lung
[59] = tested on: K-562 leukemia
[60] = tested on: 786-0 renal

NC[C@@](O)(c1ccc(Cl)cc1)c1ccc(-c2cn[nH]c2)cc1
GI50 [1]: 1650 nM
TGI [1]: 3080 nM
GI50 [2]: 369 nM
TGI [2]: 1380 nM
GI50 [3]: 944 nM
TGI [3]: 2160 nM
GI50 [4]: 1320 nM
TGI [4]: 2600 nM
GI50 [5]: 511 nM
TGI [5]: 1780 nM
GI50 [6]: 1320 nM
TGI [6]: 2610 nM
GI50 [7]: 849 nM
TGI [7]: 2110 nM
GI50 [8]: 999 nM
TGI [8]: 2180 nM
GI50 [9]: 957 nM
TGI [9]: 2150 nM
GI50 [10]: 1300 nM
TGI [10]: 2590 nM
GI50 [11]: 1470 nM
TGI [11]: 2810 nM
GI50 [12]: 1200 nM
TGI [12]: 2530 nM
GI50 [13]: 1650 nM
TGI [13]: 3020 nM
GI50 [14]: 323 nM
TGI [14]: 1270 nM
GI50 [15]: 560 nM
TGI [15]: 1940 nM
GI50 [16]: 1580 nM
TGI [16]: 2950 nM
GI50 [17]: 904 nM
TGI [17]: 2110 nM
GI50 [18]: 1960 nM
TGI [18]: 3390 nM
GI50 [19]: 560 nM
TGI [19]: 1820 nM

CC(C)Oc1ccc(C(=O)N[C@H](CNC(=O)CN(C)C)Cc2ccc(-c3cn4cccc([C@H](C)O)c4n3)cc2)cc1Cl
GI50 [20]: 21.4 nM
TGI [20]: 42.7 nM
GI50 [21]: < 21.9 nM
TGI [21]: 1820 nM
GI50 [1]: < 17.2 nM
TGI [1]: 12200 nM
GI50 [2]: < 12.1 nM
TGI [2]: < 17.1 nM
GI50 [22]: 37.9 nM
TGI [22]: 10300 nM
GI50 [23]: < 10 nM
TGI [23]: < 10 nM
GI50 [3]: < 14.2 nM
TGI [3]: < 18.9 nM
GI50 [4]: 53.7 nM
TGI [4]: 20100 nM
GI50 [24]: < 16.1 nM
TGI [24]: 8720 nM
GI50 [25]: < 17.7 nM
TGI [25]: 9180 nM
GI50 [26]: < 12.2 nM
TGI [26]: < 21.4 nM
GI50 [27]: 1410 nM
TGI [27]: 4670 nM
GI50 [5]: < 21.2 nM
GI50 [28]: < 14.7 nM
TGI [28]: < 21.4 nM
GI50 [29]: < 14.2 nM
TGI [29]: < 22.8 nM
GI50 [30]: < 10 nM
TGI [30]: < 10 nM
GI50 [31]: < 18.1 nM
TGI [31]: 14700 nM
GI50 [6]: < 22.9 nM
TGI [6]: 11400 nM
GI50 [32]: < 23 nM
TGI [32]: 13500 nM
GI50 [33]: < 20.7 nM
TGI [33]: 14500 nM
GI50 [34]: < 17.4 nM
TGI [34]: 14800 nM
GI50 [7]: < 10 nM
TGI [7]: < 10 nM
GI50 [35]: 17.2 nM
TGI [35]: 33.5 nM
GI50 [36]: < 14.5 nM
TGI [36]: < 21.8 nM
GI50 [37]: < 20 nM
TGI [37]: 14200 nM
GI50 [38]: < 20.9 nM
TGI [38]: 13800 nM
GI50 [39]: < 19.8 nM
TGI [39]: 13400 nM
GI50 [40]: < 19.6 nM
TGI [40]: 4270 nM
GI50 [41]: < 20.3 nM
TGI [41]: 12800 nM
GI50 [8]: < 18.5 nM
GI50 [42]: < 10 nM
TGI [42]: < 13 nM
GI50 [43]: < 17.9 nM
TGI [43]: 13200 nM
GI50 [44]: < 25.7 nM
TGI [44]: 16700 nM
GI50 [45]: < 17.9 nM
GI50 [10]: < 17.4 nM
TGI [10]: 12100 nM
GI50 [11]: < 17.4 nM
TGI [11]: < 28.9 nM
GI50 [46]: < 20.9 nM
TGI [46]: 16100 nM
GI50 [47]: 49.2 nM
TGI [47]: 17000 nM
GI50 [48]: < 16 nM
TGI [48]: 269 nM
GI50 [49]: < 19 nM
TGI [49]: 15900 nM
GI50 [50]: 84.7 nM
TGI [50]: 15800 nM
GI50 [51]: < 20.7 nM
TGI [51]: 14400 nM
GI50 [52]: < 21.1 nM
GI50 [12]: 55 nM
TGI [12]: 12300 nM
GI50 [13]: 182 nM
TGI [13]: 3160 nM
GI50 [53]: < 13.7 nM
TGI [53]: < 18.4 nM
GI50 [54]: < 15.9 nM
TGI [54]: < 34 nM
TGI [14]: 20900 nM
GI50 [15]: < 28.3 nM
TGI [15]: 15400 nM
GI50 [16]: < 17.5 nM
TGI [16]: 11500 nM
GI50 [17]: < 26.7 nM
TGI [17]: 14700 nM
GI50 [55]: 270 nM
TGI [55]: 8220 nM
GI50 [56]: < 11.1 nM
TGI [56]: < 15.9 nM
GI50 [57]: 44.6 nM
TGI [57]: 16600 nM
GI50 [18]: < 10 nM
TGI [18]: < 10 nM
GI50 [58]: 343 nM
TGI [58]: 14500 nM
GI50 [59]: < 12.8 nM
TGI [59]: < 22.1 nM
GI50 [60]: < 17.8 nM
TGI [60]: 4560 nM
GI50 [19]: 27.9 nM
TGI [19]: 240 nM
